Laboratory results as given in US9416353B2, “Covalent tethering of functional groups to proteins and substrates therefor” (Promega Corporation, priority 2004, dated 2016).

Experiments:
[1] = target: hR.Luc-connector-DhaA.H272F-Flag (UniProt P0A3G2+P27652, H272F/T2A); assay type: cell-based; conditions: Western blot, anti-R.Luc antibody
[2] = target: R.Luc-connector-DhaA.H272F (UniProt P0A3G2+P27652, H272F/T2A); assay type: binding; conditions: pretreatment with non-biotinylated substrate

Compound	hR.Luc-connector-DhaA.H272F-Flag fusion protein captured [1]	decrease of the efficiency of capturing [2]
O=C(CCCC[C@@H]1SC[C@@H]2NC(=O)N[C@@H]21)NCCOCCOCCCCCCCl [biotin-C10H21NO2—Cl, N-{2-[2-(6-Chlorohexyloxy)-ethoxy]ethyl}-biotin-amide]	more than 50%	
N-{2-[2-(6-Chlorohexyloxy)-ethoxy]-ethyl}-tetramethylrhodamine-5-(and -6)-amide		about 80%
